Laboratory results from PubChem BioAssay AID330 (DTP/NCI, 2004).
“And” between values parts separate entries of the source, which are not always exact repeats. Identical values can stand only once. Toxic doses and inconclusive results are not listed. Rule for the calls: active = survival T/C of 150% or more; inactive = T/C below 125% in these data.

Test system: P388 leukemia ip, CD2F1 mice, survival T/C
Test: NCI In Vivo Anticancer Drug Screen. Data for tumor model P388 Leukemia (intraperitoneal) in CD2F1 (CDF1) mice
Details: endpoint: median survival time, higher = longer survival
Procedure, shortened: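 Mice carrying the transplanted tumor received test compound or vehicle. Survival was recorded in each group, and the value is the treated-group measurement divided by that of the vehicle-treated control group.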

[1] = dose: 50.0 mg/kg/injection, schedule: Q01DX005 (ip), vehicle: saline
[2] = dose: 100.0 mg/kg/injection, schedule: Q01DX005 (ip), vehicle: saline
[3] = dose: 200.0 mg/kg/injection, schedule: Q01DX005 (ip), vehicle: saline
[4] = dose: 60.0 mg/kg/injection, schedule: Q01DX005 (ip), vehicle: saline with Tween-80
[5] = dose: 120.0 mg/kg/injection, schedule: Q01DX005 (ip), vehicle: saline with Tween-80
[6] = dose: 12.5 mg/kg/injection, schedule: Q01DX009 (ip), vehicle: saline with Tween-80
[7] = dose: 25.0 mg/kg/injection, schedule: Q01DX009 (ip), vehicle: saline with Tween-80
[8] = dose: 50.0 mg/kg/injection, schedule: Q01DX009 (ip), vehicle: saline with Tween-80
[9] = dose: 12.5 mg/kg/injection, schedule: Q01DX009 (ip), vehicle: Klucel (hydroxypropylcellulose) (HPC)
[10] = dose: 25.0 mg/kg/injection, schedule: Q01DX009 (ip), vehicle: Klucel (hydroxypropylcellulose) (HPC)
[11] = dose: 50.0 mg/kg/injection, schedule: Q01DX005 (ip), vehicle: saline with Tween-80
[12] = dose: 100.0 mg/kg/injection, schedule: Q01DX005 (ip), vehicle: saline with Tween-80
[13] = dose: 200.0 mg/kg/injection, schedule: Q01DX005 (ip), vehicle: saline with Tween-80
[14] = dose: 100.0 mg/kg/injection, schedule: Q01DX009 (ip), vehicle: saline with Tween-80
[15] = dose: 240.0 mg/kg/injection, schedule: Q01DX005 (ip), vehicle: saline with Tween-80
[16] = dose: 60.0 mg/kg/injection, schedule: Q01DX005 (ip), vehicle: saline
[17] = dose: 120.0 mg/kg/injection, schedule: Q01DX005 (ip), vehicle: saline

Measured: T/C

Cc1nc(N)nc2c1CCC(O)S2 (stereo unspecified)
inactive: [1] 98 % of control | [2] 102 % of control | [3] 96 % of control

COc1cc(/C=N/N2CN(C(C)C(=O)O)B(NCCC(C)C)N=C2N)cc(OC)c1 (stereo unspecified)
inactive: [4] 104 % of control | [5] 111 % of control

CN(/N=C/c1ccccc1)c1nnnn1-c1ccccc1
inactive: dose: 50.0 mg/kg/injection, schedule: Q01DX005 (ip), vehicle: saline + Tween-80 + alcohol 103 % of control | dose: 100.0 mg/kg/injection, schedule: Q01DX005 (ip), vehicle: saline + Tween-80 + alcohol 97 % of control | dose: 200.0 mg/kg/injection, schedule: Q01DX005 (ip), vehicle: saline + Tween-80 + alcohol 89 % of control

O=[N+]([O-])/C=C\c1cc2c3c(c1)CCCN3CCC2
inactive: [6] 100 % of control | [7] 109 % of control | [8] 109 % of control

C=CC(=O)NC(C(=O)O)C(C)C (stereo unspecified)
inactive: [1] 97 % of control | [2] 97 % of control | [3] 100 % of control

CCCC1(CCC)c2ccccc2C(Cl)(CCl)c2ccccc21
inactive: dose: 12.5 mg/kg/injection, schedule: Q01DX009 (ip), vehicle: other 103 % of control | dose: 25.0 mg/kg/injection, schedule: Q01DX009 (ip), vehicle: other 106 % of control | dose: 50.0 mg/kg/injection, schedule: Q01DX009 (ip), vehicle: other 109 % of control | dose: 100.0 mg/kg/injection, schedule: Q01DX009 (ip), vehicle: other 107 % of control | dose: 200.0 mg/kg/injection, schedule: Q01DX009 (ip), vehicle: other 109 % of control

Nc1ccc2ccccc2c1-c1c(N)ccc2ccccc12
inactive: dose: 6.25 mg/kg/injection, schedule: Q01DX009 (ip), vehicle: Klucel (hydroxypropylcellulose) (HPC) 109 % of control | [9] 91 % of control | [10] 102 % of control | dose: 50.0 mg/kg/injection, schedule: Q01DX009 (ip), vehicle: Klucel (hydroxypropylcellulose) (HPC) 111 % of control

CCOC(=O)C1(CN(C)c2ccccc2)C(C(C)=O)=CNc2c(C#N)cnn21 (stereo unspecified)
inactive: [11] 99 % of control | [12] 98 % of control | [13] 106 % of control

CC(C)N(C(=O)COc1ccc(Cl)cc1Cl)c1ccccc1
inactive: dose: 100.0 mg/kg/injection, schedule: Q04DX003 (ip), vehicle: saline with Tween-80 104 % of control | dose: 200.0 mg/kg/injection, schedule: Q04DX003 (ip), vehicle: saline with Tween-80 100 % of control | dose: 400.0 mg/kg/injection, schedule: Q04DX003 (ip), vehicle: saline with Tween-80 100 % of control

N#CNC(=NC12CC3CC(CC(C3)C1)C2)Nc1ccncc1
inactive: dose: 100.0 mg/kg/injection, schedule: Q04DX002 (ip), vehicle: saline with Tween-80 100 % of control | dose: 400.0 mg/kg/injection, schedule: Q04DX002 (ip), vehicle: saline with Tween-80 109 % of control

O=c1c2ccccc2nc(-c2ccccc2)n1-c1nccs1
inactive: [11] 86 % of control | [12] 89 % of control | [13] 91 % of control

Cc1[nH]c(=O)[nH]c(=O)c1/C=C/C(=O)NC(CO)CS(=O)C(C)C (stereo unspecified)
inactive: dose: 0.07 mg/kg/injection, schedule: Q01DX009 (ip), vehicle: water 103 % of control | dose: 0.15 mg/kg/injection, schedule: Q01DX009 (ip), vehicle: water 100 % of control | dose: 0.3 mg/kg/injection, schedule: Q01DX009 (ip), vehicle: water 103 % of control | dose: 0.6 mg/kg/injection, schedule: Q01DX009 (ip), vehicle: water 103 % of control | dose: 2.0 mg/kg/injection, schedule: Q01DX009 (ip), vehicle: water 121 % of control | dose: 4.0 mg/kg/injection, schedule: Q01DX009 (ip), vehicle: water 118 % of control | dose: 8.0 mg/kg/injection, schedule: Q01DX009 (ip), vehicle: water 118 % of control | dose: 32.0 mg/kg/injection, schedule: Q01DX009 (ip), vehicle: water 100 % of control and 124 % of control | dose: 64.0 mg/kg/injection, schedule: Q01DX009 (ip), vehicle: water 93 % of control | dose: 128.0 mg/kg/injection, schedule: Q01DX009 (ip), vehicle: water 98 % of control | dose: 200.0 mg/kg/injection, schedule: Q01DX009 (ip), vehicle: water 108 % of control | dose: 256.0 mg/kg/injection, schedule: Q01DX009 (ip), vehicle: water 96 % of control | dose: 300.0 mg/kg/injection, schedule: Q01DX009 (ip), vehicle: water 110 % of control | dose: 400.0 mg/kg/injection, schedule: Q01DX009 (ip), vehicle: water 113 % of control

CC(O)CN(CCN(CC(C)O)CC(C)O)CC(C)O.[Cl-].[Zn+2] (stereo unspecified)
inactive: dose: 12.5 mg/kg/injection, schedule: Q01DX009 (ip), vehicle: saline 117 % of control | dose: 25.0 mg/kg/injection, schedule: Q01DX009 (ip), vehicle: saline 122 % of control

C(=N/c1ccccn1)/c1ccc(/C=N\c2ccccn2)cc1
inactive: [8] 108 % of control | [14] 100 % of control | dose: 200.0 mg/kg/injection, schedule: Q01DX009 (ip), vehicle: saline with Tween-80 106 % of control | dose: 400.0 mg/kg/injection, schedule: Q01DX009 (ip), vehicle: saline with Tween-80 116 % of control

CC1=NN(C2=NS(=O)(=O)c3ccccc3N2C)C(=O)C1
inactive: [4] 86 % of control | [5] 90 % of control | [15] 90 % of control

CC(=O)N1c2ccccc2C23CCN(C)CC4C(C)OCC(C4CC2=O)C13 (stereo unspecified)
inactive: dose: 2.0 mg/kg/injection, schedule: Q01DX009 (ip), vehicle: Klucel (hydroxypropylcellulose) (HPC) 100 % of control | dose: 4.0 mg/kg/injection, schedule: Q01DX009 (ip), vehicle: Klucel (hydroxypropylcellulose) (HPC) 95 % of control | dose: 8.0 mg/kg/injection, schedule: Q01DX009 (ip), vehicle: Klucel (hydroxypropylcellulose) (HPC) 98 % of control | dose: 16.0 mg/kg/injection, schedule: Q01DX009 (ip), vehicle: Klucel (hydroxypropylcellulose) (HPC) 100 % of control | dose: 32.0 mg/kg/injection, schedule: Q01DX009 (ip), vehicle: Klucel (hydroxypropylcellulose) (HPC) 100 % of control

CC(=O)OCCNc1n[nH]c(=O)c2ccncc12
inactive: dose: 30.0 mg/kg/injection, schedule: Q01DX005 (ip), vehicle: saline with Tween-80 95 % of control | [4] 93 % of control | [5] 101 % of control | [15] 113 % of control

O=[N+]([O-])c1ccc2nccc(Cl)c2c1
inactive: [9] 95 % of control | [10] 100 % of control

CCOC(=O)c1cn2ccccc2c1C(=O)OCC
inactive: [4] 108 % of control | [5] 99 % of control | [15] 92 % of control

CCNC(=O)OCCN(CCOC(=O)NCC)CCc1ccccc1
inactive: [16] 110 % of control | [17] 117 % of control | dose: 240.0 mg/kg/injection, schedule: Q01DX005 (ip), vehicle: saline 99 % of control

Cc1cc(CN2CCN(CCO)CC2)c(O)c(CN2CCN(CCO)CC2)c1
inactive: [16] 105 % of control | [17] 102 % of control

CC1(C)COC(c2c(F)cccc2Cl)=N1
inactive: [11] 100 % of control | [12] 100 % of control | [13] 98 % of control

CCN1CCc2nc(N)oc2CC1
inactive: dose: 50.0 mg/kg/injection, schedule: Q01DX009 (ip), vehicle: saline 107 % of control | dose: 100.0 mg/kg/injection, schedule: Q01DX009 (ip), vehicle: saline 110 % of control | dose: 200.0 mg/kg/injection, schedule: Q01DX009 (ip), vehicle: saline 115 % of control

C[n+]1c(-c2ccc(/C=N/Nc3n[nH]c(=S)n3/N=C/c3ccc(-c4cn5ccsc5[n+]4C)cc3)cc2)cn2ccsc21
inactive: dose: 1.87 mg/kg/injection, schedule: Q01DX005 (ip), vehicle: saline with Tween-80 101 % of control

O=C(CC(C(=O)c1ccccc1)N1CC1)c1ccccc1 (stereo unspecified)
inactive: dose: 6.25 mg/kg/injection, schedule: Q01DX009 (ip), vehicle: saline with Tween-80 95 % of control | [6] 100 % of control | [7] 100 % of control and 87 % of control | [8] 116 % of control | [14] 91 % of control

NN=C(c1ccccn1)c1ccccn1
inactive: dose: 37.5 mg/kg/injection, schedule: Q01DX009 (ip), vehicle: saline with Tween-80 94 % of control | dose: 75.0 mg/kg/injection, schedule: Q01DX009 (ip), vehicle: saline with Tween-80 114 % of control | dose: 150.0 mg/kg/injection, schedule: Q01DX009 (ip), vehicle: saline with Tween-80 113 % of control
